In patent publication US20120172228A1, “ALCOHOL ALKOXYLATES AS ADJUVANTS FOR AGROCHEMICAL FORMULATIONS” (SYNGENTA CROP PROTECTION, LLC, priority 2009, published 2012):

Key:
Type in all cases: in vivo
[1] = tested on: lolium perenne (LOLPE), alopecurius myosuirides (ALOMY), setaria viridis (SETVI), avena fatua (AVEFA); assay: Adjuvant with herbicide pinoxaden, track sprayer, mean across four weed species; details: pinoxaden 7.5 or 15 g/ha, 14 and 21 days
[2] = tested on: lolium perenne (LOLPE), alopecurius myosuirides (ALOMY), avena fatua (AVEFA); assay: Adjuvant with herbicide pinoxaden, mean across three weed species (Example 22); details: pinoxaden 7.5, 11.25 or 15 g/ha; Sample 13 0.2%, TEHP 0.5%; 14 and 21 days
Method: In this example Sample 13 from Table 1 was compared to the oil adjuvant blend Turbocharge™. The herbicide fomesafen was applied to the weed species xanthium strumarium (XANST), setaria viridis (SETVI), abutilon theophrasti (ABUTH), and chenopodium album (CHEAL) at rates of 60 or 120 grams per hectare, using a laboratory track sprayer. Each experiment was replicated four times and the percentage damage to the weeds was assessed visually at time periods of 7, 14 and 21 days after application. Each adjuvant was applied at a rate of 0.5% of the volume of the spray water. Four effects were evaluated: pesticide rate (2 levels), adjuvant type (two levels), weed species (four levels) and days after application (three levels). A standard simple linear model was constructed to judge the significance of these effects. […] A model was fitted using multiple linear regression using the statistics package JMP (SAS group). The effect of each adjuvant was pulled out from the model and the least significant differences evaluated using a Student's t method. […]
In this example the response of the butylene oxide adjuvant 13 of Table 1 was measured at an application rate of 0.2% of the volume of the spray solution used. […] In each case the experiments were replicated four times and the percentage damage to the weeds was assessed visually at time periods of 14 and 21 days after application.

setaria viridis (SETVI) [3] = assay: Adjuvant with herbicide pinoxaden on SETVI; details: pinoxaden 7.5 or 15 g/ha; butylene oxide adjuvants 0.2%, TEHP 0.5% v/v; 14 and 21 days
Method: (§1) In this example Sample 13 from Table 1 was compared to the oil adjuvant blend Turbocharge™. The herbicide fomesafen was applied to the weed species xanthium strumarium (XANST), setaria viridis (SETVI), abutilon theophrasti (ABUTH), and chenopodium album (CHEAL) at rates of 60 or 120 grams per hectare, using a laboratory track sprayer. Each experiment was replicated four times and the percentage damage to the weeds was assessed visually at time periods of 7, 14 and 21 days after application. Each adjuvant was applied at a rate of 0.5% of the volume of the spray water. Four effects were evaluated: pesticide rate (2 levels), adjuvant type (two levels), weed species (four levels) and days after application (three levels). […] The effect of each adjuvant was pulled out from the model and the least significant differences evaluated using a Student's t method. […]
In this example the responses of the adjuvants 13, 17, 19, 21, 22 and 23 were measured at an application rate of 0.2% of the volume of the spray solution used. […] In each case the experiments were replicated four times and the percentage damage to the weeds was assessed visually at time periods of 14 and 21 days after application.
In this example the response of butylene oxide sample 27 of Table 1 was measured at an application rate of 0.2% of the volume of the spray solution used. […]

setaria viridis (SETVI) [4] = assay: Adjuvant with herbicide nicosulfuron on SETVI; details: nicosulfuron 30 or 60 g/ha; adjuvants 0.2% of spray water; 14 and 21 days after application
Method: as §1
In this example the butylene oxide adjuvant Sample 13 of Table 1 was compared to the commercial oil adjuvant blend Atplus™411F. […] Each experiment was replicated four times and the percentage damage to the weeds was assessed visually at time periods of 14 and 21 days after application. […]
In this example the responses of the butylene oxide adjuvants 13, 17, 19, 21, 22 and 23 of Table 1 were measured at an application rate of 0.2% of the volume of the spray solution used. […]

Structure (SMILES): CCCCC(CC)COP(=O)(OCC(CC)CCCC)OCC(CC)CCCC (centres unmarked) [TEHP, tris 2-ethylhexyl phosphate]
- Mean kill (%) ([1]; Sample 28 0.2%, TEHP 0.5%): 92.6%
- mean efficacy (percentage damage to the weeds), All weeds ([1]; butylene oxide adjuvants 0.2%, TEHP 0.5% v/v): 75.63; A %
- mean efficacy (percentage damage to the weeds), All weeds [2]: 59.91; A %
- mean efficacy (percentage damage to the weeds), SETVI (setaria viridis (SETVI) [3]): 77.5; ABC %
- mean efficacy (percentage damage to the weeds), SETVI (setaria viridis (SETVI) [4]): 77.08; A %
